Measured values as given in patent publication US9921215B2, “Method for detecting ligand using FRET biosensor” (KOREA RESEARCH INSTITUTE OF BIOSCIENCE AND BIOTECHNOLOGY, priority 2009, dated 2018).

How the values were obtained:
[1] = target: T1, CaraFY-PR arabinose FRET biosensor: fusion protein ECFP-ARBP-EYFP of E. coli MG1655 ARBP (arabinose-binding protein) (Escherichia coli, UniProt P02924); experiment: Specificity of the arabinose FRET biosensor for various sugars; conditions: critical temperature 49 °C; ligand 100 μM, 1 mM, 10 mM
Description: (§1) Analysis of the specificities of the FRET biosensors for various ligands was performed using 19 kinds of sugars, including monosaccharides, polyscaccharides and sugar alcohols.
(§2) To measure the specificities of the sensors, each of the purified FRET biosensors was added to 0.5 ml of PBS buffer (pH 7.4) at a concentration of 0.5 μM such that the concentration of each ligand reached 100 μM, 1 mM, 10 mM, etc. In 3 minutes after the peltier device surrounding the cuvette has reached each of the critical temperatures determined in Example 3, fluorescence was measured.

[2] = target: T2, CmglBY-SS glucose FRET biosensor: fusion protein ECFP-GGBP-EYFP of E. coli MG1655 GGBP (galactose/glucose-binding protein) (Escherichia coli, UniProt P0AEE5); experiment: Specificity of the glucose FRET biosensor for various sugars; conditions: critical temperature 50 °C; ligand 100 μM, 1 mM, 10 mM
Description: as §1, §2
Target sequence in this assay (P0AEE5 24-332 limits assumed): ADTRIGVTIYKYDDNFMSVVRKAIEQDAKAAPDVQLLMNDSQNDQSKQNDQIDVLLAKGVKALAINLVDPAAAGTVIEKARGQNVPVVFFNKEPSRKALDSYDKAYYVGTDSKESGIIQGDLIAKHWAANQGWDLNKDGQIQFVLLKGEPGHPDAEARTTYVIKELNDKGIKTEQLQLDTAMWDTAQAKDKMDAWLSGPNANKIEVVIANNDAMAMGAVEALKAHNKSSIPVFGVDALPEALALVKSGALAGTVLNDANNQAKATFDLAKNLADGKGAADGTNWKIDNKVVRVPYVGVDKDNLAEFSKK

[3] = target: CalsBY-QV allose FRET biosensor: fusion protein ECFP-ALBP-EYFP of E. coli MG1655 ALBP (allose-binding protein) (Escherichia coli, UniProt P39265); experiment: Specificity of the allose FRET biosensor for various sugars; conditions: critical temperature 49 °C; ligand 100 μM, 1 mM, 10 mM; ribose compared with measurement at 25 °C in U.S. Pat. No. 7,432,353
Sequence of CalsBY-QV allose FRET biosensor: fusion protein ECFP-ALBP-EYFP of E. coli MG1655 ALBP (allose-binding protein) (P39265 24-311): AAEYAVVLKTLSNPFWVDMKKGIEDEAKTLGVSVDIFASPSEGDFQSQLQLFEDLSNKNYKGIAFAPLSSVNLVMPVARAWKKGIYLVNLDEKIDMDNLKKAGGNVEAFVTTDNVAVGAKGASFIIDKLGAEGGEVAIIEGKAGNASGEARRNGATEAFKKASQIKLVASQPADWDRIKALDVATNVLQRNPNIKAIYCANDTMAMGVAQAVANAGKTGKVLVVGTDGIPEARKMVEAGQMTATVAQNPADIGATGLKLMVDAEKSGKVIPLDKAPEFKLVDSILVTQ
Description: as §1, §2

[4] = target: T2, CmglBY-SS glucose FRET biosensor: fusion protein ECFP-GGBP-EYFP of E. coli MG1655 GGBP (galactose/glucose-binding protein); experiment: Ligand titration of FRET biosensor CmglBY-SS (glucose sensor) at its critical temperature; parameters: 6xHis (C); made in house; host or cells: E. coli
Excerpt: In addition, an expression vector of CmglBY-SS, a biosensor for measuring glucose used in the present invention, was constructed in the following manner.
First, ECFP gene was amplified by PCR using a pECFP vector as a template and a forward primer of SEQ ID NO: 3 together with a reverse primer of SEQ ID NO: 13 prepared to overlap with the nucleotide sequence of the N-terminus of GGBP. Likewise, GGBP gene was amplified by PCR using a chromosomal DNA, extracted from E. coli MG1655, as a template, and a forward primer of SEQ ID NO: 14 together with a reverse primer of SEQ ID NO: 15 containing a BamHI restriction sequence. […]
(§3) The fluorescence of the FRET biosensors was measured using the fluorescence analysis system Cary Eclipse (Varian Inc., Mulgrave, Australia) under the conditions in which the proteins of each biosensor were controlled to the same concentration of 0.5 μM in 0.5 ml of PBS buffer (pH 7.4). […]
(§4) Also, Δratio that defines the detection capability of the FRET biosensor was determined according to the following equation 4: Δratio=ratiomax−ratiomin [Equation 4]
(§5) The titration curves of the FRET biosensors were expressed as Sigmoidal curves using the 4-parameter Hill equation of Sigmaplot 10.0 (Systat software Inc., USA) based on changes in the ratio measured while increasing the ligand concentration from 1 nM to 10 mM. […]
Target sequence in this assay (P0AEE5 24-332 with tags or gaps limits assumed): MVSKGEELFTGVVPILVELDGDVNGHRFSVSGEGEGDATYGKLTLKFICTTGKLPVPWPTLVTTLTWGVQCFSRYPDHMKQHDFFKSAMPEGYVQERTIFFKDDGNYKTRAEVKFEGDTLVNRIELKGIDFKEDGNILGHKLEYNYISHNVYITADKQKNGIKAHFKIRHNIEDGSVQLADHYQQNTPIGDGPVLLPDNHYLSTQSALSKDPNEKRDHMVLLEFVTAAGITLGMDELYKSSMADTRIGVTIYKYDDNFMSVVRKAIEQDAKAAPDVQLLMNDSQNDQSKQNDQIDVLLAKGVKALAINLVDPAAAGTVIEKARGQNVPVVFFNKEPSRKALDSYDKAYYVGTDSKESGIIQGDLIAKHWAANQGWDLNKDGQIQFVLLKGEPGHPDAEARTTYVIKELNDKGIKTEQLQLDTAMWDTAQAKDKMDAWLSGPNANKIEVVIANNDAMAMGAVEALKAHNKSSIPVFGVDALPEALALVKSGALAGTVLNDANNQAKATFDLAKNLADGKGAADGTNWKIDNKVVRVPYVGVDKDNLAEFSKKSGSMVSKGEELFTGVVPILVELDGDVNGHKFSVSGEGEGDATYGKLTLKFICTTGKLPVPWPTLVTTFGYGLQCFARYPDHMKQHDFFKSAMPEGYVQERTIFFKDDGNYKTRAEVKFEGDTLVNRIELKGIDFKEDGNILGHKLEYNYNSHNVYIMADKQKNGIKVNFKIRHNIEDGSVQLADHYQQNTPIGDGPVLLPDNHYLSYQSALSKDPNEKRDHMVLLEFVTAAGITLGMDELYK

[5] = target: T1, CaraFY-PR arabinose FRET biosensor: fusion protein ECFP-ARBP-EYFP of E. coli MG1655 ARBP (arabinose-binding protein); experiment: Ligand titration of FRET biosensor CaraFY-PR (arabinose sensor) at its critical temperature; parameters: 6xHis (C); made in house; host or cells: E. coli
Excerpt: Likewise, in order to construct an expression vector of CaraFY-PR, a biosensor for measuring arabinose, ECFP gene was amplified by PCR using primers of SEQ ID NOs: 3 and 10, and ARBP gene was amplified by PCR using a chromosomal DNA, extracted from E. coli MG1655, as a template, and primers of SEQ ID NOs: 11 and 12.
The amplified ECFP and ARBP genes were amplified by PCR using primers of SEQ ID NOs: 3 and 12, thus obtaining a synthetic gene of ECFP-ARBP. The ECFP-ARBP gene was inserted into the ECFP-MBP gene position of the pECMY-BII expression vector, thereby constructing a pECaraFY-PR vector.
as §3, §4, §5
Target sequence in this assay (P02924 other isoform, or with tags, fused parts or gaps): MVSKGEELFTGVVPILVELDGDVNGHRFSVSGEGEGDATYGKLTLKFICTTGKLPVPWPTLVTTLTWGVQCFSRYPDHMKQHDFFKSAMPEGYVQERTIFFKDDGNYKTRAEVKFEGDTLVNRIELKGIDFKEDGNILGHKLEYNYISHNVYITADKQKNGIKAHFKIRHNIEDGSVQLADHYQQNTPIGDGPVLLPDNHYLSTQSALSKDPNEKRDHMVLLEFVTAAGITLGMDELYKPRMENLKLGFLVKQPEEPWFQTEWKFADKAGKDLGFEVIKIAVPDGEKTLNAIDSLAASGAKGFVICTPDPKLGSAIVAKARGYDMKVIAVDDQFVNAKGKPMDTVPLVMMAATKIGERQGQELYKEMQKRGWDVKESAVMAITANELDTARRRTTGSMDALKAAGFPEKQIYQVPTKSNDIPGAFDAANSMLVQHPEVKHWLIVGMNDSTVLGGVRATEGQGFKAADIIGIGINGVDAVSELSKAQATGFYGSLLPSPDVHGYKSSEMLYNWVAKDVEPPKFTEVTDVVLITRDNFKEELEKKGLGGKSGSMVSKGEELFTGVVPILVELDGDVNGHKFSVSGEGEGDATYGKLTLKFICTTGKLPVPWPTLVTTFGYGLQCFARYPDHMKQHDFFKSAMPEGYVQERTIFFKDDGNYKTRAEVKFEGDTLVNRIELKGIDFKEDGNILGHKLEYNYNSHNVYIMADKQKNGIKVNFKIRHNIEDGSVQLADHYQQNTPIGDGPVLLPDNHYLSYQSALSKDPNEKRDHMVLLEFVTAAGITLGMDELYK

[6] = cited from earlier work

Question: Which affinity [1] does the source give for `OC[C@H]1OC(O)[C@H](O)[C@@H](O)[C@H]1O` (stereo partly shown) [galactose] here?
Answer: Its affinity is “very high affinity”.

Question: And the affinity [2]?
Answer: Its affinity is “very high affinity”.

Question: With `OC1OC[C@@H](O)[C@@H](O)[C@H]1O` (stereo partly shown) [ribose] as the molecule, how does the “specificity for other sugars” value [3] read?
Answer: Its value is “reduced specificity”.

Question: Which Kd [4] does the source give for `OC[C@H]1OC(O)[C@H](O)[C@@H](O)[C@@H]1O` (stereo partly shown) [glucose] here?
Answer: Its Kd is 9.2 ± 0.5 µM.

Question: With `OC1OC[C@H](O)[C@H](O)[C@H]1O` (stereo partly shown) [arabinose] as the molecule, how does the Kd [5] read?
Answer: Its Kd is 67 ± 4 µM.

B1: ARBP: E. coli periplasmic arabinose-binding protein (protein, UniProt P02924 24-329, looked up)
L-arabinose-binding …: ENLKLGFLVKQPEEPWFQTEWKFADKAGKDLGFEVIKIAVPDGEKTLNAIDSLAASGAKGFVICTPDPKLGSAIVAKARGYDMKVIAVDDQFVNAKGKPMDTVPLVMMAATKIGERQGQELYKEMQKRGWDVKESAVMAITANELDTARRRTTGSMDALKAAGFPEKQIYQVPTKSNDIPGAFDAANSMLVQHPEVKHWLIVGMNDSTVLGGVRATEGQGFKAADIIGIGINGVDAVSELSKAQATGFYGSLLPSPDVHGYKSSEMLYNWVAKDVEPPKFTEVTDVVLITRDNFKEELEKKGLGGK
Question: With B1 as the molecule, how does the “Unfolding temperature in the presence of ligand” value ([6]; 1 mM arabinose (ARBP) / glucose (GGBP)) read?
Answer: Its value is 59 °C.

Question: What about the “Unfolding temperature in the absence of ligand” value ([6]; no arabinose (ARBP) / no glucose (GGBP)) of the same molecule?
Answer: Its value is 53.5 °C.
